According to BindingDB's records for doi:10.1016/j.bmcl.2005.05.116 (Merck Frosst Canada, 2005):

How the values were obtained:
Assay in all cases: Caspase Inhibition Assay
Caspase-7 = target: T1, Caspase-7 (Homo sapiens, UniProt P55210)
T1 sequence (P55210 whole entry): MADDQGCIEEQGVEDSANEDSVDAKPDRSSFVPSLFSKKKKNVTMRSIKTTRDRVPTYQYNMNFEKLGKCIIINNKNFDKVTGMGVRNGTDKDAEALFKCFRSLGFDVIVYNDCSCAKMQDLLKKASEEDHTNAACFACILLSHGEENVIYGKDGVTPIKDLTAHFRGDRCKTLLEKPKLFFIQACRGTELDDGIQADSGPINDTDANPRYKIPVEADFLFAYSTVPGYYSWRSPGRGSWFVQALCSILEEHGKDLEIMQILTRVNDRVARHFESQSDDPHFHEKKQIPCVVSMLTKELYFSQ
Experimental: (§1) The substrate peptides terminating in AMC are processed by caspases with or without inhibitors, and the accumulation of AMC was assessed with a Cytofluor fluorescent plate reader at excitation and emission wavelengths of 380 and 460 nm. Compounds were tested, and full IC50 curves were run for all compounds expressing measurable inhibitory activity.

Caspase-1 = target: T2, Caspase-1 (Homo sapiens, UniProt P29466)
T2 sequence (P29466 whole entry): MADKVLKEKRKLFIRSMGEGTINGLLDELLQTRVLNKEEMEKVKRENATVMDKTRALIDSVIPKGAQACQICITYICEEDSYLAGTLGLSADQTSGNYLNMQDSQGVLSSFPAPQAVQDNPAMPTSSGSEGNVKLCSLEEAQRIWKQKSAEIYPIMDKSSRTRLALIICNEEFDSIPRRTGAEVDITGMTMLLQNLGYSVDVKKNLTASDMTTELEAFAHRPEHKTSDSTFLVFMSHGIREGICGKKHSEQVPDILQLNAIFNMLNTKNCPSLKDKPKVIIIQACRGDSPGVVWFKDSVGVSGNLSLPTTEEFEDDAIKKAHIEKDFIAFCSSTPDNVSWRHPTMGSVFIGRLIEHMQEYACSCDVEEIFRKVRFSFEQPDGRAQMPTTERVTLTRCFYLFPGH
Experimental: as §1

Caspase-3 = target: T3, Caspase-3 (Homo sapiens, UniProt P42574)
T3 sequence (P42574 whole entry): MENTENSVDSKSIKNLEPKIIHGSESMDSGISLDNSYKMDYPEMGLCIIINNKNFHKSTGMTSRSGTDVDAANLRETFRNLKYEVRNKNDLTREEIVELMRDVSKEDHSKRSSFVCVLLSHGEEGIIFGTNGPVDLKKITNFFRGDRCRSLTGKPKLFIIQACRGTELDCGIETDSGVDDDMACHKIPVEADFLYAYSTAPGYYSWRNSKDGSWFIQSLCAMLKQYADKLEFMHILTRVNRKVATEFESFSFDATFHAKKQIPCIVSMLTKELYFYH
Experimental: as §1

Caspase-8 = Caspase-8 (Homo sapiens, UniProt Q14790)
Experimental: as §1

Caspase-8, sequence (Q14790 217-374 limits assumed): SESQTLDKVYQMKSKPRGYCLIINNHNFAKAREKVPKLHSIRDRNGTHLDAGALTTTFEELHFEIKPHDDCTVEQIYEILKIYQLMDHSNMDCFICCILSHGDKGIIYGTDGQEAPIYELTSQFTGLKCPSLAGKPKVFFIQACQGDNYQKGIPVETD
Caspase-8, sequence (Q14790 385-479 limits assumed): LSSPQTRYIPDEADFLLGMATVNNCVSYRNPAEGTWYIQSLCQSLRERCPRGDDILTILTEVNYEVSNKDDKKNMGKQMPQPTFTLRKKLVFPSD

Row | Structure (SMILES) | IC50 (Caspase-7) [µM] | IC50 (Caspase-1) [µM] | IC50 (Caspase-3) [µM] | IC50 (Caspase-8) [µM] | IC50 (Caspase-3; pH 7, 37 °C) [µM]
1 | COc1ccc(C(C)=O)cc1C(O)C(=O)N[C@H](C(=O)N[C@@H](CC(=O)O)C(=O)CSCc1ccccc1)C(C)C (stereo partly drawn) [(3S)-5-(benzylsulfanyl)-3-[(2S)-2-[2-(5-acetyl-2-methoxyphenyl)-2-hydroxyacetamido]-3-methylbutanamido]-4-oxopentanoic acid] | 0.29 | 4.85 | 0.016 | 0.635 | –
2 | C#CC[C@H](C(=O)N[C@H](C(=O)N[C@@H](CC(=O)O)C(=O)CSCc1ccccc1)C(C)C)c1cc(Br)ccc1OC [(3S)-5-(benzylsulfanyl)-3-[(2S)-2-[(2S)-2-(5-bromo-2-methoxyphenyl)pent-4-ynamido]-3-methylbutanamido]-4-oxopentanoic acid] | 3.62 | > 10 | – | 4.47 | 0.341
3 | COc1ccc(Br)cc1[C@H](Cc1ccccc1)C(=O)N[C@H](C(=O)N[C@@H](CC(=O)O)C(=O)CSCc1ccccc1)C(C)C [(3S)-5-(benzylsulfanyl)-3-[(2S)-2-[(2S)-2-(5-bromo-2-methoxyphenyl)-3-phenylpropanamido]-3-methylbutanamido]-4-oxopentanoic acid] | 4.2 | 5.81 | – | 5.83 | 0.181
4 | COc1ccc(Br)cc1C(O)C(=O)N[C@H](C(=O)N[C@@H](CC(=O)O)C(=O)CSCc1ccccc1)C(C)C (stereo partly drawn) [(3S)-5-(benzylsulfanyl)-3-[(2S)-2-[2-(5-bromo-2-methoxyphenyl)-2-hydroxyacetamido]-3-methylbutanamido]-4-oxopentanoic acid] | 0.091 | 1.54 | 0.005 | 0.104 | –
5 | COc1ccc(OC)c(C(O)C(=O)N[C@H](C(=O)N[C@@H](CC(=O)O)C(=O)CSCc2ccccc2)C(C)C)c1 (stereo partly drawn) [(3S)-5-(benzylsulfanyl)-3-[(2S)-2-[2-(2,5-dimethoxyphenyl)-2-hydroxyacetamido]-3-methylbutanamido]-4-oxopentanoic acid] | 0.545 | 4.49 | 0.029 | 0.975 | –
6 | COc1ccc(Br)cc1[C@@H](C(=O)N[C@H](C(=O)N[C@@H](CC(=O)O)C(=O)CSCc1ccccc1)C(C)C)C(C)C [(3S)-5-(benzylsulfanyl)-3-[(2S)-2-[(2S)-2-(5-bromo-2-methoxyphenyl)-3-methylbutanamido]-3-methylbutanamido]-4-oxopentanoic acid] | > 10 | > 10 | – | 1.32 | 9.44
7 | COc1ccc(I)cc1C(O)C(=O)N[C@H](C(=O)N[C@@H](CC(=O)O)C(=O)CSCc1ccccc1)C(C)C (stereo partly drawn) [(3S)-5-(benzylsulfanyl)-3-[(2S)-2-[2-hydroxy-2-(5-iodo-2-methoxyphenyl)acetamido]-3-methylbutanamido]-4-oxopentanoic acid] | 0.135 | 0.675 | 0.016 | 0.098 | –

The remaining lines, values ahead:

Row | IC50 (Caspase-7) [µM] | IC50 (Caspase-1) [µM] | IC50 (Caspase-3) [µM] | IC50 (Caspase-8) [µM] | IC50 (Caspase-3; pH 7, 37 °C) [µM] | Structure (SMILES)
8 | > 10 | > 10 | – | > 10 | 0.323 | COc1ccc(Br)cc1C1(C(=O)N[C@H](C(=O)N[C@@H](CC(=O)O)C(=O)CSCc2ccccc2)C(C)C)CC1 [(3S)-5-(benzylsulfanyl)-3-[(2S)-2-{[1-(5-bromo-2-methoxyphenyl)cyclopropyl]formamido}-3-methylbutanamido]-4-oxopentanoic acid]
9 | 5.3 | > 10 | – | 4.5 | 0.274 | CCC[C@H](C(=O)N[C@H](C(=O)N[C@@H](CC(=O)O)C(=O)CSCc1ccccc1)C(C)C)c1cc(Br)ccc1OC [(3S)-5-(benzylsulfanyl)-3-[(2S)-2-[(2S)-2-(5-bromo-2-methoxyphenyl)pentanamido]-3-methylbutanamido]-4-oxopentanoic acid]
10 | 3.69 | > 10 | – | 5.38 | 0.176 | COc1ccc(Br)cc1[C@H](C)C(=O)N[C@H](C(=O)N[C@@H](CC(=O)O)C(=O)CSCc1ccccc1)C(C)C [(3S)-5-(benzylsulfanyl)-3-[(2S)-2-[(2S)-2-(5-bromo-2-methoxyphenyl)propanamido]-3-methylbutanamido]-4-oxopentanoic acid]
11 | 0.063 | 2.46 | 0.012 | 0.28 | – | COc1ccc(-c2nc(C)no2)cc1C(O)C(=O)N[C@H](C(=O)N[C@@H](CC(=O)O)C(=O)CSCc1ccccc1)C(C)C (stereo partly drawn) [(3S)-5-(benzylsulfanyl)-3-[(2S)-2-{2-hydroxy-2-[2-methoxy-5-(3-methyl-1,2,4-oxadiazol-5-yl)phenyl]acetamido}-3-methylbutanamido]-4-oxopentanoic acid]
12 | 2.21 | 6.51 | – | 1.62 | 0.08 | C=CC[C@H](C(=O)N[C@H](C(=O)N[C@@H](CC(=O)O)C(=O)CSCc1ccccc1)C(C)C)c1cc(Br)ccc1OC [(3S)-5-(benzylsulfanyl)-3-[(2S)-2-[(2S)-2-(5-bromo-2-methoxyphenyl)pent-4-enamido]-3-methylbutanamido]-4-oxopentanoic acid]
